# Laboratory results published in patent US6518295B1, “Utilization of aryl(or heteroaryl)azolylcarbinol derivatives in the preparation of a medicament for the treatment of troubles mediated by an excess of substance P” (Laboratorios del Dr. Esteve, S.A., priority 1998, dated 2003).
# Like-named read-outs stand apart in the source and are kept apart here.
# Legend:
# Format in all cases: in vivo
# [1] = tested on: ptosis induced by reserpine; test: Inhibition of ptosis induced by reserpine in mice
# Procedure: (§1) In one the inhibition of ptosis induced by reserpine was studied, and in the other the effect on mobility in adverse situation was investigated.
# 2.1 Inhibition of Ptosis Induced by Reserpine in Mice:
# The method used was that described by S.Garattini and co-workers (Med. Exp., 1960, 3, 315-320). The trial consists of observing the possible inhibition of ptosis induced by reserpine ([…], ip: intraperitoneal) in mice, after the products under study had been administered orally.
# The activity of the (±)-5-{α-[2-(dimethylamino)ethoxy] benzyl}-1-methyl-1H-pyrazol citrate (example 191) administered orally at different doses has been determined.
# [2] = tested on: intrathecal release of substance P; test: Effect on the spinal release of substance P in rats (intrathecal perfusion)
# Procedure: Effect on the Spinal Release of Substance P in Rats:
# The study was carried out in vivo, in rats anaesthetised with halothane. The trial consisted of intrathecal perfusion with an artificial cerebrospinal fluid, with a view to collecting the peptides released from the superficial layers of the spinal cord while the product under study is administered locally or systematically. The method used was that described by Collin, E. and co-workers (Naunyn-Schmiedeberg's Arch. Pharmacol., 1994, 349, 387-393).
# The activity of the (±)-5-{α-[2-(dimethylamino)ethoxy] benzyl}-1-methyl-1H-pyrazol citrate (example 191) was studied, administered intrathecally in the perfusion liquid, at a concentration of 1 μM.
# It is of note that the effect of the systematic administration of product on the intrathecal release of substance P lasted 2 hours, the average inhibition being 50% of the effect during this period.
# [3] = tested on: immobility time in adverse situation; test: Effect on mobility in adverse situation (mice suspended by their tails, ITEMATIC-TST)
# Excerpt: as §1
# 2.2 Effect on Mobility in Adverse Situation:
# The method used was described by R. D. Porsolt and co-workers (Arch. Int. Pharmacodyn., 1987, 288, 11-30). The trial consists of suspending the mice by their tales for six minutes in an ITEMATIC-TST apparatus, which measures the mobility and the strength of the animals' movements. The animals exposed to this adverse situation, after a start with vigorous activity, become desperate and end up staying still.
compound,measurement,setting,value
"CN(C)CCOC(c1ccccc1)c1ccnn1C.O=C(O)CC(O)(CC(=O)O)C(=O)O (racemic) [Example 191, (±)-5-{α-[2-(dimethylamino)ethoxy]benzyl}-1-methyl-1H-pyrazol citrate]",inhibition at 12 mg/kg,"[1]; Mus musculus, 12 mg/kg, oral (dose as base)",8%
same,inhibition at 23 mg/kg,"[1]; Mus musculus, 23 mg/kg, oral (dose as base)",30%
same,inhibition at 80 mg/kg,"[1]; Mus musculus, 80 mg/kg, oral (dose as base)",75%
same,inhibition at 92 mg/kg,"[1]; Mus musculus, 92 mg/kg, oral (dose as base)",84%
same,"anti-depressive activity, inhibition of the effects of reserpine","[1]; oral, different doses",clear anti-depressive activity inhibiting the effects of reserpine with a good dose-response
same,SD-50,"[1]; oral, inhibition of ptosis induced by reserpine","38.5 mg/kg, oral"
same,inhibition at 1 µM,"[2]; Rattus norvegicus, central, 1 μM, intrathecal, in the perfusion liquid, rats anaesthetised with halothane, read-out: % Inhibition, with respect to control, of intrathecal release of substance P",58%
same,inhibition at 46 mg/kg,"[2]; Rattus norvegicus, central, systematic administration (46 mg/kg), average during the 2 hours, read-out: average inhibition of intrathecal release of substance P",50%
same,inhibition at 46 mg/kg,"[2]; Rattus norvegicus, 46 mg/kg, ip, rats anaesthetised with halothane, read-out: % Inhibition, with respect to control, of intrathecal release of substance P",50%
same,effect on release of substance P,"[2]; intrathecally in the perfusion liquid, 1 μM",inhibited the release of substance P
same,duration of the effect on the intrathecal release of substance P,[2]; systematic administration (46 mg/kg),2 h
same,effect on release of substance P,[2]; systematic administration of 46 mg/kg,reduced the release of substance P
same,inhibition at 12 mg/kg,"[3]; Mus musculus, mice, dose 12 mg/kg, oral",20%
same,inhibition at 23 mg/kg,"[3]; Mus musculus, mice, dose 23 mg/kg, oral",30%
same,inhibition at 46 mg/kg,"[3]; Mus musculus, mice, dose 46 mg/kg, oral",41%
same,inhibition at 92 mg/kg,"[3]; Mus musculus, mice, dose 92 mg/kg, oral",69%
same,effect on the immobility period,[3]; mice suspended by their tails for six minutes,reducing the immobility period significantly and in a dose-dependent fashion
same,DE-50 (inhibition of immobility time in adverse situation),"[3]; mice, oral","50.5 mg/kg, oral"
